US9682060B2, “Small molecules that induce intrinsic pathway apoptosis” (The Board of Trustees of the University of Illinois, priority 2015, dated 2017)
“Also recorded” adds a separate entry of the source.

Legend:
[1] = tested on: U-937; experiment: Raptinal toxicity, 24 hour IC50 (MTS assay for suspension cells); assay type: cell-based; conditions: U-937 (Human Lymphoma); 24 hour incubation; mean ± SD
Experimental: (§1) MTS Assay for Suspension Cells.
(§2) Serial dilutions of compound in 100% DMSO were added in triplicate (2 μL to each well) to empty wells of a 96-well plate. Suspension cells (HL-60, U-937, SKW 6.4, Jurkat W T, Jurkat CASP8^−/−, Jurkat FADD^−/−, Jurkat Bcl-2) cells in RPMI 1640 media were added to 96-well plates (198 μL containing 4×10^4 cells) and the cells incubated for 24 hours.

[2] = tested on: HL-60; experiment: as above; assay type: cell-based; conditions: HL-60 (Human Leukemia); 24 hour incubation; mean ± SD
Experimental: as §1, §2

[3] = tested on: Jurkat; experiment: as above; assay type: cell-based; conditions: Jurkat (Human Leukemia); 24 hour incubation; mean ± SD
Experimental: as §1, §2

[4] = tested on: SKW 6.4; experiment: as above; assay type: cell-based; conditions: SKW 6.4 (Human Lymphoma); 24 hour incubation; mean ± SD
Experimental: as §1, §2

[5] = tested on: U-937 cells; experiment: Cytochrome c release by immunoblot and flow cytometry; assay type: cell-based, Human; conditions: 10 μM
Experimental: (§3) Cytochrome c Release by Immunoblot.
(§4) U-937 cells (3×10^6 cells in 2 mL RPMI) or SKW 6.4 cells (5×10^6 cells in 2 mL RPMI) were treated with 10 μM Raptinal for 10, 20, 30, 45 or 60 minutes in a 12-well plate. Cells were centrifuged (1000×g. 2 min), washed with ice-cold PBS and resuspended in cold 200 μL digitonin permeabilization buffer (75 mM NaCl, 1 mM Sodium phosphate monobasic, 8 mM sodium phosphate dibasic, 250 mM sucrose, 190 μg/mL digitonin, protease cocktail inhibitor, pH 7.5) and placed on ice for 5 min. Cell permeability (>95%) was confirmed by trypan blue. The permeabilized cells were centrifuged (14000×g, 5 min) and 150 μL of supernatant (cytosolic fraction) was saved. The pellet (mitochondrial fraction) was washed in 200 μL digitonin permeabilization buffer and lysed in 25 μL RIPA lysis buffer. […]
(§5) Suspension cells (2.5×10^6 SKW 6.4 cells or 1.5×10^6 U-937 cells in 1 mL RPMI) were treated with 10 μM Raptinal in a 24 well plate for 10, 20, 30, 45 and 60 min. The cells were centrifuged (1000×g, 2 min), washed with cold PBS and resuspended in cold permeabilization buffer (PBS containing 50 μg/mL digitonin and 100 mM KCl) and placed on ice for 5 min after which >95% of cells were permeabilized as determined by trypan blue. […] The cells were pelleted and washed with PBS (3 mL) and resuspended in PBS (1 mL) and analyzed by flow cytometry. […]

[6] = tested on: SKW 6.4 cells; experiment: as above; assay type: cell-based, Human; conditions: 10 μM
Experimental: as §3, §4, §5

[7] = tested on: HL-60 cells; experiment: High-throughput cell death screen (MTS); assay type: cell-based, human; conditions: 1 μM, 24 hours
Experimental: High-Throughput Cell Death Screen.
HL-60 cells were plated into 384 well plates (50 μL of 2×10^6 cells/mL per well) in RPMI cell culture media. Library compounds were transferred using a 384-pin transfer apparatus (V & P Scientific, San Diego) which transferred 0.1 μL from 10 mM DMSO stock solutions to achieve a final concentration of 20 μM. Controls containing DMSO only and 10 μM etoposide were used to serve as live and dead controls respectively. The cells were incubated for 24 hours.

[8] = Pharmacokinetic profiling in mice; assay type: in vivo, C57BL/6 mice; conditions: 37.5 mg/kg intravenously
Experimental: Pharmacokinetics and Toxicity Profiling in Mice.
All animal studies were performed with prior approval by the University of Illinois at Urbana-Champaign IACUC committee. Eight week old female C57BL/6 mice were used for all pharmacokinetic and toxicity experiments. […]. For toxicity assessment, Raptinal was administered intravenously as a single-dose injection across a dose range of 15-60 mg/kg, and mice were sacrificed 7 days post-injection for evidence of hematologic toxicity (n=3 mice/group).

[9] = tested on: U-937 cells; experiment: Mitochondrial permeability transition pore (MPTP) calcein-cobalt assay; assay type: cell-based, Human; conditions: calcein-cobalt quenching
Experimental: Mitochondrial Permeability Transition Pore (MPTP) Calcein-Cobalt Assay.
U-937 cells (1×10^6 cells/mL in HBSS) were loaded with calcein-AM (20 nM final concentration) for 45 minutes at 37° C. The cells were washed with HBSS and resuspended in RPMI and plated into a 24-well plate (1×10^6 cells in 1 mL). The cells were treated with Raptinal (10 μM) for 15, 30, 45, 60 and 90 minutes. Cobalt(II) chloride was added (10 μL of 80 mM stock in HBSS) to the cells 10 minutes prior to the end of the time points. The cells were pelleted and resuspended in HBSS (0.5 mL) and calcein fluorescence was measured by flow cytometry. As a positive control for MPTP, ionomycin and calcium were added to calcein-labeled cells in HBSS 10 minutes prior to analysis by flow cytometry.

[10] = tested on: cancer cell lines (HL-60, SK-MEL-5, U-937); experiment: Initial screens against cancer cell lines; assay type: cell-based, Human
[11] = tested on: adherent cell lines (HOS, H1993, SK-MEL-5, MIA PaCa-2); experiment: Adherent cell lines: cell death by AV/PI staining and immunoblots; assay type: cell-based, Human; conditions: HOS, H1993, SK-MEL-5, MIA PaCa-2, 10 μM

O=CC1(C2(C=O)c3ccccc3-c3ccccc32)c2ccccc2-c2ccccc21 [Raptinal, [9,9′]bifluorenyl-9,9′-dicarbaldehyde]
IC50 [1]: 0.7 ± 0.3 µM | IC50 [2]: 2.1 ± 1.4 µM | IC50 [3]: 2.7 ± 0.9 µM | IC50 [4]: 1.1 ± 0.1 µM | time of earliest / partial cytochrome c release [5]: 10 min | time of earliest / partial cytochrome c release [6]: 10 min | cell death in retest of screen hits [7]: quantitative cell death | peak plasma concentration [8]: 134.5 ± 2.2 µM | peak plasma concentration ([8]; mean ± SD, n=3): 54.4 ± 0.9 µg/mL | half-life ([8]; female, C57BL/6, mouse, in vivo, iv, mean ± SD, n=3, read-out: elimination half-life): 1.53 ± 0.0967 h | mitochondrial permeability transition pore (MPTP) formation [9]: does not induce; also recorded: did not undergo mitochondrial-permeability-transition-pore (MPTP) formation | IC50 ([10]; Homo sapiens, HL-60, SK-MEL-5, U-937, 24 hour assays): 0.15 to 0.7 µM | cell death after short treatment and washout ([10]; cancer cells treated 1 hour, extensive washing to remove compound, read at 24-hour mark): significant cell death | speed of cell death induction versus 1541B and staurosporine ([11]; AV/PI): substantially faster than the other agents | procaspase-3 activation and PARP-1 cleavage within 2 hours ([11]; immunoblots): the only agent capable of activating procaspase-3 and inducing subsequent PARP-1 cleavage within 2 hours
